From the NIST ThermoML archive (doi:10.1021/acs.jced.7b00099)
Several values for one entry are separate records, joined by “and”; a condition that tells them apart may be missing. Equal entries are not always repeated.

Details: Liquid, Closed cell (Static) method

CCCCCCCCCCCC(=O)OC [methyl dodecanoate]
Details	vapor or sublimation pressure [kPa]
353.15 K	0.0644
363.15 K	0.1217
373.15 K	0.2212
383.15 K	0.388
393.15 K	0.657
403.15 K	1.08
413.15 K	1.728
423.15 K	2.694
433.15 K	4.104

CCCCCCCCCCCCCC(=O)OC [methyl tetradecanoate]
Details	vapor or sublimation pressure [kPa]
353.15 K	0.0133
363.15 K	0.0267
373.15 K	0.0516
383.15 K	0.0959
393.15 K	0.1723
403.15 K	0.3003
413.15 K	0.509
423.15 K	0.839
433.15 K	1.35
443.15 K	2.123
453.15 K	3.27

CCCCCCCCCCCCCC [tetradecane]
Details	vapor or sublimation pressure
351.75 K	0.124 kPa
353.15 K	0.1355 kPa and 0.1354 kPa
361.8 K	0.232 kPa
361.89 K	0.232 kPa
363.15 K	0.2517 kPa
371.91 K	0.422 kPa
373.15 K	0.4469 kPa and 0.4472 kPa
381.93 K	0.717 kPa
382.07 K	0.716 kPa
383.15 K	0.762 kPa and 0.763 kPa
391.95 K	1.186 kPa
392 K	1.186 kPa
393.15 K	1.254 kPa and 1.255 kPa
402.74 K	1.947 kPa
403.15 K	1.998 kPa
412.69 K	3.029 kPa
413.15 K	3.09 kPa and 3.086 kPa
422.55 K	4.545 kPa
423.15 K	4.652 kPa and 4.642 kPa
432.39 K	6.661 kPa
433.15 K	6.836 kPa and 6.812 kPa
442.49 K	9.461 kPa
443.15 K	9.776 kPa
452.49 K	13.46 kPa
453.15 K	13.75 kPa

CCCCCCCCCCCCCCCC(=O)OC [methyl hexadecanoate]
Details	vapor or sublimation pressure [kPa]
373.15 K	0.0158
383.15 K	0.0294
393.15 K	0.0535
403.15 K	0.095
413.15 K	0.1644
423.15 K	0.2789
433.15 K	0.4635
443.15 K	0.756
453.15 K	1.21
